According to patent publication US20240399142A1, “Methods Of Using Alternating Electric Fields And Checkpoint Inhibitors” (NOVOCURE GMBH, priority 2023, published 2024):

Assay: LUNAR study safety: adverse events per CTCAE version 4.03, safety population
Type: in vivo, human
Settings: for Anxiety / Confusional state / Mental status changes: psychiatric disorders; for Acute kidney injury / Urinary retention: renal and urinary disorders; for Acute respiratory failure / Atelectasis / Bronchial obstruction / Bronchopleural fistula / Chronic obstructive pulmonary disease / Cough / Dyspnoea / Esophago-bronchial fistula / Hemoptysis / Hypoxia / Interstitial lung disease / Pleural effusion / Pneumonia aspiration / Pneumonitis / Pulmonary embolism / Pulmonary hemorrhage / Respiratory failure: thoracic, and mediastinal disorders, respiratory; for Alopecia / Dermatitis exfoliative / Pruritus / Rash / Rash erythematous / Rash maculopapular / Skin erosion / Skin reaction / Skin toxicity: skin and subcutaneous tissue disorders; for Deep vein thrombosis / Embolism / Hypertension / Jugular vein thrombosis / Peripheral arterial occlusive disease / Vena cava embolism: vascular disorders
[1] = Grade 4, nervous system disorders
[2] = Grade 5, nervous system disorders

Experimental: Safety and treatment data were compiled from all patients who received any study therapy and were analyzed according to the actual treatment received. Analyses were performed using SAS software, version 9.4 (SAS Institute).

CC(=O)O[C@@]12CO[C@@H]1C[C@H](O)[C@@]1(C)C(=O)[C@H](O)C3=C(C)[C@@H](OC(=O)[C@H](O)[C@@H](NC(=O)OC(C)(C)C)c4ccccc4)C[C@@](O)([C@@H](OC(=O)c4ccccc4)[C@H]21)C3(C)C [Docetaxel, docetaxel]
0 no. (%): Metastases to bone (Grade 4) | Metastases to central nervous system (Grade 4) | Metastases to meninges (Grade 4) | Metastases to skin (Grade 4) | Mouth ulceration (Grade 4) | Mucosal inflammation (Grade 4) | Multiple organ dysfunction syndrome (Grade 4) | Muscular weakness (Grade 4) | Myalgia (Grade 4) | Myocardial infarction (Grade 4) | Nausea (Grade 4) | Neck pain (Grade 4) | Neuropathy peripheral (Grade 4) | Non-cardiac chest pain (Grade 4) | Oedema peripheral (Grade 4) | Oral candidiasis (Grade 4) | Pancreatic failure (Grade 4) | Pancreatitis (Grade 4) | Pericardial effusion (Grade 4) | Peripheral sensory (Grade 4) | Platelet count decreased (Grade 4) | Pneumonia (Grade 4) | Pneumonia pseudomonal (Grade 4) | Pneumonia staphylococcal (Grade 4) | Pyelonephritis (Grade 4) | Pyopneumothorax (Grade 4) | Pyrexia (Grade 4) | Refeeding syndrome (Grade 4) | Respiratory tract infection (Grade 4) | Right ventricular failure (Grade 4) | Septic shock (Grade 4) | Skin infection (Grade 4) | Stomatitis (Grade 4) | Subileus (Grade 4) | Thyroiditis subacute (Grade 4) | Tumor pain (Grade 4) | Upper respiratory tract infection (Grade 4) | Urinary tract infection (Grade 4) | Urosepsis (Grade 4) | Vomiting (Grade 4) | Weight decreased (Grade 4) | Cauda equina syndrome [1] | Dysarthria [1] | Embolic stroke [1] | Hemiparesis [1] | Motor dysfunction [1] | Nervous system disorder [1] | Neurologic neglect syndrome [1] | Neurotoxicity [1] | Peripheral sensorimotor neuropathy [1] | Quadriparesis [1] | Seizure [1] | Syncope [1] | Vocal cord paralysis [1] | Anxiety (Grade 4) | Confusional state (Grade 4) | Acute kidney injury (Grade 4) | Urinary retention (Grade 4) | Acute respiratory failure (Grade 4) | Atelectasis (Grade 4) | Bronchopleural fistula (Grade 4) | Chronic obstructive pulmonary disease (Grade 4) | Cough (Grade 4) | Esophago-bronchial fistula (Grade 4) | Hemoptysis (Grade 4) | Hypoxia (Grade 4) | Interstitial lung disease (Grade 4) | Pleural effusion (Grade 4) | Pneumonia aspiration (Grade 4) | Pneumonitis (Grade 4) | Pulmonary embolism (Grade 4) | Pulmonary hemorrhage (Grade 4) | Respiratory failure (Grade 4) | Alopecia (Grade 4) | Dermatitis exfoliative (Grade 4) | Pruritus (Grade 4) | Rash (Grade 4) | Rash erythematous (Grade 4) | Rash maculopapular (Grade 4) | Skin erosion (Grade 4) | Skin reaction (Grade 4) | Skin toxicity (Grade 4) | Deep vein thrombosis (Grade 4) | Embolism (Grade 4) | Hypertension (Grade 4) | Peripheral arterial occlusive disease (Grade 4) | Vena cava embolism (Grade 4) | Acute myocardial infarction (Grade 5) | Alanine aminotransferase increased (Grade 5) | Anemia (Grade 5) | Anemia macrocytic (Grade 5) | Arthralgia (Grade 5) | Ascites (Grade 5) | Aspergillus infection (Grade 5) | Asthenia (Grade 5) | Atrial tachycardia (Grade 5) | Autoimmune colitis (Grade 5) | Back pain (Grade 5) | Blood bilirubin increased (Grade 5) | Bone pain (Grade 5) | Bronchiolitis (Grade 5) | Bronchitis (Grade 5) | C-reactive protein increased (Grade 5) | COVID-19 pneumonia (Grade 5) | Cancer pain (Grade 5) | Cardiac failure congestive (Grade 5) | Cardiac tamponade (Grade 5) | Cardiac ventricular thrombosis (Grade 5) | Cataract (Grade 5) | Chest pain (Grade 5) | Cholangitis (Grade 5) | Cholecystitis (Grade 5) | Cholelithiasis (Grade 5) | Clostridium bacteremia (Grade 5) | Coronary artery disease (Grade 5) | Decreased appetite (Grade 5) | Dehydration (Grade 5) | Diarrhea (Grade 5) | Diverticulitis (Grade 5) | Drug hypersensitivity (Grade 5) | Encephalitis (Grade 5) | Esophagitis (Grade 5) | Fatigue (Grade 5) | Febrile neutropenia (Grade 5) | Femoral neck fracture (Grade 5) | Forced expiratory volume decreased (Grade 5) | Gastroenteritis norovirus (Grade 5) | Gastroenteritis salmonella (Grade 5) | General physical health deterioration (Grade 5) | Hematochezia (Grade 5) | Hepatic enzyme increased (Grade 5) | Hip fracture (Grade 5) | Hypercalcemia (Grade 5) | Hyperglycemia (Grade 5) | Hyperkalaemia (Grade 5) | Hypertriglyceridaemia (Grade 5) | Hypoalbuminemia (Grade 5) | Hypocalcaemia (Grade 5) | Hypokalemia (Grade 5) | Hyponatremia (Grade 5) | Ileus (Grade 5) | Infection (Grade 5) | Intestinal dilatation (Grade 5) | Intestinal hemorrhage (Grade 5) | Intestinal perforation (Grade 5) | Large intestine perforation (Grade 5) | Leukopenia (Grade 5) | Liver disorder (Grade 5) | Localized oedema (Grade 5) | Lung abscess (Grade 5) | Lymphocyte count decreased (Grade 5) | Lymphopenia (Grade 5) | Malignant ascites (Grade 5) | Malignant pleural effusion (Grade 5) | Malnutrition (Grade 5) | Metastases to bone (Grade 5) | Metastases to central nervous system (Grade 5) | Metastases to meninges (Grade 5) | Mouth ulceration (Grade 5) | Mucosal inflammation (Grade 5) | Multiple organ dysfunction syndrome (Grade 5) | Muscular weakness (Grade 5) | Myalgia (Grade 5) | Myocardial infarction (Grade 5) | Nausea (Grade 5) | Neck pain (Grade 5) | Neutropenia (Grade 5) | Neutrophil count decreased (Grade 5) | Non-cardiac chest pain (Grade 5) | Oedema peripheral (Grade 5) | Oral candidiasis (Grade 5) | Pancreatic failure (Grade 5) | Pancreatitis (Grade 5) | Pericardial effusion (Grade 5) | Peripheral sensory (Grade 5) | Platelet count decreased (Grade 5) | Pneumonia (Grade 5) | Pneumonia pseudomonal (Grade 5) | Pneumonia staphylococcal (Grade 5) | Pyelonephritis (Grade 5) | Pyopneumothorax (Grade 5) | Pyrexia (Grade 5) | Refeeding syndrome (Grade 5) | Respiratory tract infection (Grade 5) | Right ventricular failure (Grade 5) | Sepsis (Grade 5) | Septic shock (Grade 5) | Skin infection (Grade 5) | Stomatitis (Grade 5) | Subileus (Grade 5) | Thrombocytopenia (Grade 5) | Thyroiditis subacute (Grade 5) | Tumor pain (Grade 5) | Upper respiratory tract infection (Grade 5) | Urinary tract infection (Grade 5) | Urosepsis (Grade 5) | Vomiting (Grade 5) | Weight decreased (Grade 5) | White blood cell count decreased (Grade 5) | Brain oedema [2] | Cauda equina syndrome [2] | Dysarthria [2] | Hemiparesis [2] | Motor dysfunction [2] | Nervous system disorder [2] | Neurologic neglect syndrome [2] | Peripheral sensorimotor neuropathy [2] | Quadriparesis [2] | Seizure [2] | Syncope [2] | Vocal cord paralysis [2] | Anxiety (Grade 5) | Confusional state (Grade 5) | Mental status changes (Grade 5) | Acute kidney injury (Grade 5) | Urinary retention (Grade 5) | Atelectasis (Grade 5) | Bronchial obstruction (Grade 5) | Bronchopleural fistula (Grade 5) | Chronic obstructive pulmonary disease (Grade 5) | Cough (Grade 5) | Dyspnoea (Grade 5) | Esophago-bronchial fistula (Grade 5) | Hemoptysis (Grade 5) | Hypoxia (Grade 5) | Interstitial lung disease (Grade 5) | Pleural effusion (Grade 5) | Pneumonia aspiration (Grade 5) | Pneumonitis (Grade 5) | Pulmonary embolism (Grade 5) | Pulmonary hemorrhage (Grade 5) | Alopecia (Grade 5) | Dermatitis exfoliative (Grade 5) | Pruritus (Grade 5) | Rash (Grade 5) | Rash erythematous (Grade 5) | Rash maculopapular (Grade 5) | Skin erosion (Grade 5) | Skin reaction (Grade 5) | Skin toxicity (Grade 5) | Deep vein thrombosis (Grade 5) | Embolism (Grade 5) | Hypertension (Grade 5) | Jugular vein thrombosis (Grade 5) | Peripheral arterial occlusive disease (Grade 5) | Vena cava embolism (Grade 5) | COVID-19 pneumonia (human, in vivo) | Herpes zoster (human, in vivo)
28 (41.2) no. (%): Serious adverse event (in vivo)
2 (2.9) no. (%): White blood cell count decreased (Grade 4) | Bronchial obstruction (Grade 4) | Acute respiratory failure (Grade 5)
43 (63.2) no. (%): Any adverse event (Grade ≥3)
4 (5.9) no. (%): Neutrophil count decreased (Grade 4) | Any adverse event (Grade 5) | Adverse event leading to death (human, in vivo, 75 mg/m2)
four: patients who discontinued therapy due to intolerable toxicity (in vivo)
10 (14.7) no. (%): Neutropenia (Grade 4)
11 (16.2) no. (%): Neutropenia (Grade ≥3)
8 (11.8) no. (%): Anemia (Grade ≥3)
1 (1.5) no. (%): Sepsis (Grade 4) | Thrombocytopenia (Grade 4) | Brain oedema [1] | Mental status changes (Grade 4) | Dyspnoea (Grade 4) | Jugular vein thrombosis (Grade 4) | Euthanasia (Grade 5) | Respiratory failure (Grade 5) | Adverse event leading to discontinuation (in vivo)
